Values quoted from earlier work as cited in patent publication US20090239783A1, “SYNERGISTIC EFFECTS OF COMBINED ADMINISTRATION OF MIRTAZAPINE AND A STIMULANT COMPOUND” (priority 2004, published 2009).

What was measured:
histamine (H1) = histamine (H1) (Homo sapiens, UniProt P35367)
Chain of histamine (H1) (P35367 whole entry): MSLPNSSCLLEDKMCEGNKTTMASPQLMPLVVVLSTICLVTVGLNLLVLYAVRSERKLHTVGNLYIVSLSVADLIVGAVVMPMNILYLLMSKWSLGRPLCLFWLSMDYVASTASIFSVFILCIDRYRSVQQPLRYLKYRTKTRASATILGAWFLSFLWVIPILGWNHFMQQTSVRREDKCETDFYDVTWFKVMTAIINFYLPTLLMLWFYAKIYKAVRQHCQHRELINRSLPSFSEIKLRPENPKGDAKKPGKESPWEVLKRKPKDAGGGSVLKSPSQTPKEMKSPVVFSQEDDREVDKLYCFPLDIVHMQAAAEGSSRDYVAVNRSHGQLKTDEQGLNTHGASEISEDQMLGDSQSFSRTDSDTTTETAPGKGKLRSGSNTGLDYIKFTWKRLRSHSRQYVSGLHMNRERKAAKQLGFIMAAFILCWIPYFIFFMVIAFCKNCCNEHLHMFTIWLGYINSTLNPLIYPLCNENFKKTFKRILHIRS

CN1CCN2c3ncccc3Cc3ccccc3C2C1 (stereo not shown) [Mirtazapine, 1,2,3,4,10,14b-hexahydro-2-methylpyrazino [2,1-a] pyrido [2,3-c] benzazepine]
solubility in water: slightly soluble | affinity for 5-HT1 receptors (5-HT1 receptors): weak | muscarinic anticholinergic properties (muscarinic): very weak | histamine (H1) antagonist properties (histamine (H1)): very weak
